The subject of test [1] is STZ-induced diabetic CD-1 mice. Nature of the test: Insulin tolerance test (ITT). In kind it is in vivo. The following applies: single intragastric dose 50 mg/kg, insulin 0.75 IU after 30 min. As for the experimental part: The studies were carried out on compounds 4b, 4g, and 5g using both normoglycemic CD1 mice and a mouse model of noninsulin-dependent diabetes mellitus (NIDDM). An oral glucose tolerance test (OGTT) was conducted on the normoglycemic mice to evaluate the hypoglycemic activity of the compounds, while an insulin tolerance test (ITT) was performed on hyperglycemic CD1 mice to assess the compounds' capacity to enhance insulin sensitivity in streptozotocin-induced diabetic mice. Pioglitazone and GA were included as positive controls. […] Healthy six-week-old male CD-1 mice, weighing between 30 and 40 g, were maintained at a temperature of 25 ± 2 °C, under a 12-h light/dark cycle and 45-65% humidity throughout the experimental period. The mice were provided with a rodent pelleted diet (Harlan Laboratories, Indianapolis, USA) and had access to water ad libitum. Sixteen hours before the experiment, all mice were fasted but still had free access to water. All animal procedures were conducted in accordance with the Mexican Federal Regulations for Animal Experimentation and Care (SAGARPA, NOM-062-ZOO-1999, Mexico) and received approval from the Institutional Animal Care and Use Committee, following guidelines outlined in the US National Institutes of Health publication (No. 85-23, revised 1985). Streptozotocin (STZ) was dissolved in citrate buffer (pH 4.5), while nicotinamide was dissolved in a normal physiological saline solution. The noninsulin-dependent diabetes (NIDD) mouse model was induced in overnight-fasted mice through a single intraperitoneal injection of STZ (100 mg/kg). Nicotinamide was administered 15 min prior, at a dose of 20 mg/kg via intraperitoneal injection. […] Roche). […] Animals were categorized into five groups, each consisting of four mice (n = 4). The experimental groups received an oral suspension of compounds 4b, 4g, and 5g, prepared in a 10% Tween 20/water solution, at a dosage of 50 mg/kg body weight. A control group was treated with only the 10% Tween 20 solution. The final group was administered pioglitazone at a dose of 45 mg/kg, which is recognized as a reference drug for insulin sensitization. To evaluate glucose levels, blood samples were collected from the tails of the mice at 0, 30, 60, 90, and 120 min after the administration of the vehicle, test compound, or drug. Blood glucose concentration was measured using a commercial glucometer (Accu-Chek, Performa; Roche) and the enzymatic glucose dehydrogenase method. The percentage variation in glycemia was calculated by comparing the selected postadministration glycemia (G x ) with the initial value (G0) using the following formula: %[…]=[(Gx-G0)/G0]×100 where G0 represents the initial glycemia values and Gx indicates the glycemia values at +30, + 60, + 90, and +120 min, respectively. To evaluate the ability of GA derivatives to enhance insulin sensitivity in STZ-induced diabetic CD-1 mice, compounds 4b, 4g, and 5g were tested. Glycyrrhetinic acid (GA) and Pioglitazone served as positive controls. The GA derivatives and the positive controls were administered to the diabetic animals, followed by the administration of human rapid-acting insulin (0.75 IU) after 30 min. Subsequently, glucose levels were measured every 15 min.

Test [2] concerns the target T1, hPTP1B1–400 (Homo sapiens, UniProt P18031).
T1 construct: h PTP1B 1–400 IC 50 (μM ± S.D); made in house
T1 sequence (P18031 1-400): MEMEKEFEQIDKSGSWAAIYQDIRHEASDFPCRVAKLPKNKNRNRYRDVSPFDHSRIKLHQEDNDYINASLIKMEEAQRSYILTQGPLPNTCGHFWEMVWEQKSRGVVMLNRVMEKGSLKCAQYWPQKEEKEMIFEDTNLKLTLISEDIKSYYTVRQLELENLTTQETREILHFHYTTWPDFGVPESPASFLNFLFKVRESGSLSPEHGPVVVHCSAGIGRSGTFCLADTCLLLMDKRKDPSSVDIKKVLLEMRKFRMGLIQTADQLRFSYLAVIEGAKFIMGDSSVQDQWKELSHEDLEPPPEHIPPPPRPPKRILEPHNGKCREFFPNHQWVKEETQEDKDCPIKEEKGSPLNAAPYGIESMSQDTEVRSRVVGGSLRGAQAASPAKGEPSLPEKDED
Kind of test: PTP1B inhibition, pNPP hydrolysis, long form. It is filed as biochemical. The following applies: pNPP substrate, 15 min 37 °C, pH 6.8; ± S.D. As for the experimental part:
The inhibitory activity of PTP1B was assessed using the long form of the PTP1B enzyme (hPTP1B1–400). This enzyme comprises a highly conserved N-terminal catalytic domain, known as the PTP domain (PTP1B1–300), in addition to an intrinsically disordered regulatory domain (PTP1B301–400).
The IC50 values obtained from these tests are detailed in Table .
Aliquots of 0–10 μL of the test compounds (triplicate) were taken and incubated for 15 min at 37 °C with 85 μL of Tris buffer solution (50 mM, pH 6.8) containing PTP1B enzyme and 5 μL of p-nitrophenyl phosphate substrate (pNPP, 10 mM). The absorbance of the hydrolysis product, p-nitrophenol (pNP), was measured at 405 nm using a 96-microplate absorbance reader (Accuris SmartReader 96). The inhibitory activity was determined according to eq . %enzyme=(A405b/A405c)×100 1 Where: % enzyme is the percentage of inhibition for PTP1B or TCPTP
The IC50 was calculated using regression analysis, eq : %inhibition=A100/1+(I/IC50)^s 2 Where: A100: Maximum inhibition

Test [3] has as its target T1, hPTP1B1–400. Nature of the test: Enzymatic kinetics studies (Lineweaver–Burk, model fitting). In kind it is biochemical. Conditions: for inhibition type: hPTP1B1–400, best fit model; for Ki: hPTP1B1–400, pNPP 0.1–0.5 mM; for Km / Vmax: hPTP1B1–400 with inhibitor. As for the experimental part: Kinetic analyses were conducted using varying concentrations of substrate and inhibitor.
Five increasing concentrations of each inhibitor were tested, according to their previously determined IC50 values. The negative control was prepared by omitting the inhibitor in the presence of the enzyme and substrate. The Supporting Information includes detailed eqs (E1–E5) used to determine the kinetic parameters and mechanisms involved in PTP1B inhibition.
Equation 1 was used to obtain enzyme kinetic parameters by fitting data to the Michaelis-Menten model (Origin Pro
The equations defined for the following non-linear inhibition models were used to determine the mechanism of
PTP1B inhibition: competitive (E2), non-competitive (E3), uncompetitive (E4), and mixed (E5) (Origin Pro 2018 (64
(1+ ( ))(x05nh ) + (1+ ( )) (x05 nh)
Vmax is the maximum velocity, x is the substrate concentration, i is the inhibitor concentration, nh is the number of
Hill. Ki is the inhibition constant, and Km is the Michaelis constant.

The values below come from paper PMC12921516 (ACS Bio & Med Chem Au, 2025).

As a reminder, the IC50 is the concentration that inhibits the measured activity by half. A higher IC50 goes with lower potency. As a reminder, the Ki is a dissociation constant, usually derived from enzyme kinetics or from competition with a known ligand. One may read the Km as the substrate concentration at which the rate is half of its maximum. Broadly, the Vmax is the rate approached at saturating substrate.

For the compound `CC1(C)[C@@H](O)CC[C@]2(C)[C@H]3C(=O)C=C4[C@@H]5C[C@@](C)(C(=O)O)CC[C@]5(C)CC[C@@]4(C)[C@]3(C)CC[C@@H]12` [GA, Glycyrrhetinic acid, reference compound], the “glycemia variation in ITT” value in test [1] is “markedly decrease glycemia variation”.
As to `CC1(C)c2[nH]c3ccc(OC(F)(F)F)cc3c2C[C@]2(C)[C@H]3C(=O)C=C4[C@@H]5C[C@@](C)(C(=O)O)CC[C@]5(C)CC[C@@]4(C)[C@]3(C)CC[C@@H]12` [compound 4a, (20β)-5′-(Trifluoromethoxy)-11-oxo-1′H-oleana-2,12-dieno[3,2-b]indol-29-oic Acid], the IC50 against hPTP1B1–400 [2] was found to be 2.13 ± 0.13 µM. Also, at hPTP1B1–400 [3], the inhibition type result is reported as “uncompetitive”, affinity was put at a Ki of 740 ± 100 nM, the Km stood at 1.84 ± 0.19 mM and the Vmax is listed as 1.06 ± 0.24 mM/min.
Regarding `CC1(C)c2[nH]c3ccc(SC(F)(F)F)cc3c2C[C@]2(C)[C@H]3C(=O)C=C4[C@@H]5C[C@@](C)(C(=O)O)CC[C@]5(C)CC[C@@]4(C)[C@]3(C)CC[C@@H]12` [compound 4c, (20β)-5′-(Trifluormethylthio)-11-oxo-1′H-oleana-2,12-dieno[3,2-b]indol-29-oic Acid], on hPTP1B1–400 [2], half-maximal inhibition (IC50) was put at 5.6 ± 0.12 µM.
On the same count and under the same terms, the figure for `CC1(C)c2[nH]c3ccc(C#N)cc3c2C[C@]2(C)[C@H]3C(=O)C=C4[C@@H]5C[C@@](C)(C(=O)O)CC[C@]5(C)CC[C@@]4(C)[C@]3(C)CC[C@@H]12` [compound 4d, (20β)-5′-Cyano-11-oxo-1′H-oleana-2,12-dieno[3,2-b]indol-29-oic Acid] is 22.4 ± 0.53 µM.
As for `CC1(C)c2[nH]c3ccc(C(=O)O)cc3c2C[C@]2(C)[C@H]3C(=O)C=C4[C@@H]5C[C@@](C)(C(=O)O)CC[C@]5(C)CC[C@@]4(C)[C@]3(C)CC[C@@H]12` [compound 4e, (20β)-5′-Carboxy-11-oxo-1′H-oleana-2,12-dieno[3,2-b]indol-29-oic Acid], the 50% inhibitory concentration (IC50) against hPTP1B1–400 [2] amounted to 4.33 ± 0.58 µM. For the same compound, on hPTP1B1–400 [3], the inhibition type result is “uncompetitive”; the affinity, expressed as Ki, was 4050 ± 670 nM; the Km was determined as 0.99 ± 0.19 mM; the Vmax was determined as 1.64 ± 0.23 mM/min.
Consider `CC1(C)c2[nH]c3ccc(C(N)=O)cc3c2C[C@]2(C)[C@H]3C(=O)C=C4[C@@H]5C[C@@](C)(C(=O)O)CC[C@]5(C)CC[C@@]4(C)[C@]3(C)CC[C@@H]12` [compound 4f, (20β)-5′-Carbamoyl-11-oxo-1′H-oleana-2,12-dieno[3,2-b]indol-29-oic Acid], for which, on hPTP1B1–400 [2], the half-maximal inhibitory concentration (IC50) was 9.3 ± 0.25 µM.
At hPTP1B1–400 [2], `CC1(C)c2c(cnn2-c2ccc(OC(F)(F)F)cc2)C[C@]2(C)[C@H]3C(=O)C=C4[C@@H]5C[C@@](C)(C(=O)O)CC[C@]5(C)CC[C@@]4(C)[C@]3(C)CC[C@@H]12` [compound 5a, (20β)-11-Oxo-2′-[4-(trifluoromethoxy)phenyl]-2′H-oleana-2,12-dieno[3,2-c]pyrazol-29-oic acid] came in with an IC50 of 2.29 ± 0.15 µM.
Take `CC1(C)c2c(cnn2-c2ccc(OC(F)F)cc2)C[C@]2(C)[C@H]3C(=O)C=C4[C@@H]5C[C@@](C)(C(=O)O)CC[C@]5(C)CC[C@@]4(C)[C@]3(C)CC[C@@H]12` [compound 5b, (20β)-2′-[4-(Difluoromethoxy)phenyl]-11-Oxo-2′H-oleana-2,12-dieno[3,2-c]pyrazol-29-oic Acid]: inhibition against hPTP1B1–400 [2] was half-maximal at 6.19 ± 0.58 µM (IC50).
On hPTP1B1–400 [2], `CC1(C)c2c(cnn2-c2ccc(SC(F)(F)F)cc2)C[C@]2(C)[C@H]3C(=O)C=C4[C@@H]5C[C@@](C)(C(=O)O)CC[C@]5(C)CC[C@@]4(C)[C@]3(C)CC[C@@H]12` [compound 5c, (20β)-11-Oxo-2′-[4-(trifluoromethylthio)phenyl]-2′H-oleana-2,12-dieno[3,2-c]pyrazol-29-oic Acid] gave a concentration for half-maximal inhibition (IC50) of 2.08 ± 0.04 µM.
With `CC1(C)c2c(cnn2-c2ccc(C#N)cc2)C[C@]2(C)[C@H]3C(=O)C=C4[C@@H]5C[C@@](C)(C(=O)O)CC[C@]5(C)CC[C@@]4(C)[C@]3(C)CC[C@@H]12` [compound 5d, (20β)-2′-(4-Cyanophenyl)-11-oxo-2′H-oleana-2,12-dieno[3,2-c]pyrazol-29-oic Acid], on hPTP1B1–400 [2], inhibition was half-maximal at 6.83 ± 0.17 µM (IC50).
At hPTP1B1–400 [2], `CC1(C)c2c(cnn2-c2ccc(C(N)=O)cc2)C[C@]2(C)[C@H]3C(=O)C=C4[C@@H]5C[C@@](C)(C(=O)O)CC[C@]5(C)CC[C@@]4(C)[C@]3(C)CC[C@@H]12` [compound 5f, (20β)-2′-(4-Carbamoylphenyl)-11-oxo-2′H-oleana-2,12-dieno[3,2-c]pyrazol-29-oic Acid] showed an IC50 of 10.3 ± 0.51 µM.
